Measurements as given in US12453712B2, “Antitumoral use of cabazitaxel” (Sanofi Mature IP, priority 2009, dated 2025).

How the values were obtained:
[1] = tested on: cancers that are resistant to hormone deprivation; conditions: docetaxel in combination with estramustine or prednisone; cited from earlier work
[2] = tested on: castration resistant metastatic prostate cancer; experiment: Randomized clinical study of cabazitaxel vs mitoxantrone, each with prednisone or prednisolone: efficacy; assay type: in vivo, human; conditions: intention-to-treat
Procedure: (§1) A clinical study was performed wherein patients received either treatment with cabazitaxel or the reference treatment based on mitoxantrone each combined with prednisone or prednisolone.
(§2) More specifically, patients over 18 years of age with metastatic castration resistant metastatic prostate cancer either measurable by RECIST criteria or non-measurable disease with rising PSA levels or appearance of new lesions, ECOG (Eastern Cooperative Oncology Group) performance stage 0-2, and adequate organ function (patients had to have neutrophils >1,500 cells/mm^3, platelets >100,000 cells/mm^3, hemoglobin >10 g/dL, creatinine <1.5×upper limit of normal (ULN), total bilirubin <1×ULN, AST <1.5×ULN, and ALT <1.5×ULN) who had had prior hormone therapy, chemotherapy, and radiotherapy, but had progressive during or after docetaxel treatment (cumulative dose ≥225 mg/m^2) were randomized to 10 mg/day of prednisone with either mitoxantrone 12 mg/m^2 or cabazitaxel 25 mg/m^2, both administered every 3 weeks.
(§3) Patients with a history of congestive heart failure, or myocardial infarction within the last 6 months, or patients with uncontrolled cardiac arrhythmias, angina pectoris, and/or hypertension were not included in the study.
(§4) 720 patients were planned to be included in the clinical study: 360 in each cabazitaxel+prednisone and mitoxantrone+prednisone group. Seven hundred and fifty-five patients (755) (median age 68; 84% white) were actually enrolled, 378 in the cabazitaxel and prednisone/prednisolone group and 377 in the mitoxantrone and prednisone/prednisolone group. The maximal number of treatment cycles was 10 for cabazitaxel and 10 for mitoxantrone. The median number of treatment cycles was 6 for cabazitaxel and 4 for mitoxantrone. The median prior dose of docetaxel treatment was 576 mg/m^2 for the cabazitaxel group and 529 mg/m^2 for the mitoxantrone group. Median follow-up was 12.8 months.
The measurements of the results are performed via the same tests as at inclusion. MRI and spiral computed tomographic (CT) scans are preferably used.
The results are evaluated according to the following criteria (cf RECIST guideline): • overall survival (OS): the time from inclusion to the study to the date of death complete response (CR): disappearance of the lesions • partial response (PR): at least 30% reduction of the largest diameter of the lesion progression (PD): at least 20% increase in the sum of the largest diameter of the lesion or appearance of one or more new lesions • stable disease (SD): reduction of the tumour insufficient to be included in PR and increase of the tumour insufficient to be included in PD.
The confirmations of the measurements are made at least 4 weeks after the response criterion has been established for the first time.
The progression-free survival (PFS) is the time from inclusion in the study and the date of progression or death when the progression is either an increase of the PSA, or of the tumour, or of the pain.

[3] = Same clinical study: adverse reactions, hematologic abnormalities, treatment discontinuation, delays and dose reductions; assay type: in vivo, human
Procedure: as §1, §2, §3, §4

[4] = human, in vivo, listed as Mitoxantrone
[5] = percent of patients, laboratory values, cabazitaxel: n = 369, mitoxantrone: n = 370

## CC(=O)O[C@@]12CO[C@@H]1C[C@H](O)[C@@]1(C)C(=O)[C@H](O)C3=C(C)[C@@H](OC(=O)[C@H](O)[C@@H](NC(=O)OC(C)(C)C)c4ccccc4)C[C@@](O)([C@@H](OC(=O)c4ccccc4)[C@H]21)C3(C)C [docetaxel]
[1]
  improvement of survival: 2.4 months

## O=C1c2c(O)ccc(O)c2C(=O)c2c(NCCNCCO)ccc(NCCNCCO)c21 [mitoxantrone, reference compound]
[2]
  Discontinuation of study treatment for disease progression, (%): (70.8) %
[2]; N = 377 mitoxantrone, N = 378 cabazitaxel
  Discontinuation of study treatment for disease progression, no.: 267
[2]; 25 mg/m^2 cabazitaxel or 12 mg/m^2 mitoxantrone every 3 weeks with prednisone
  Overall survival Median: 12.7 months
[2]; earliest progression in tumor, PSA or pain
  PFS Median: 1.4 months
[3]; Example 1
  Rates of febrile neutropenia: 1.3%
[3]; human, in vivo
  Dose reductions, cycles (%): 5.1%
  Dose reductions, no. of cycles: 88
  Treatment delays >9 days, cycles (%): 1.6%
  Treatment delays >9 days, no. of cycles: 28
  Treatment delays ≤9 days, cycles (%): 6.3%
  Treatment delays ≤9 days, no. of cycles: 110
[3]; [4]
  Dose reductions, cycles (%): (5.1) %
  Treatment delays >9 days, cycles (%): (1.6) %
  Treatment delays ≤9 days, cycles (%): (6.3) %
[3]; intention-to-treat
  Discontinuation of study treatment for adverse event, (%): (8.5) %
[3]; intention-to-treat, N = 377 mitoxantrone, N = 378 cabazitaxel
  Discontinuation of study treatment for adverse event, no.: 32
[3]; percent of patients of n = 371
  Abdominal Pain Grade 1-4, (%): (6%)
  Alopecia Grade 1-4, (%): (5%)
  Anorexia Grade 1-4, (%): (11%)
  Anorexia Grade 3-4, (%): (<1%)
  Arrhythmia Grade 1-4, (%): (2%)
  Arrhythmia Grade 3-4, (%): (<1%)
  Arthralgia Grade 1-4, (%): (8%)
  Arthralgia Grade 3-4, (%): (1%)
  Asthenia Grade 1-4, (%): (12%)
  Asthenia Grade 3-4, (%): (2%)
  Back Pain Grade 1-4, (%): (12%)
  Back Pain Grade 3-4, (%): (3%)
  Bone Pain Grade 1-4, (%): (5%)
  Bone Pain Grade 3-4, (%): (2%)
  Constipation Grade 1-4, (%): (15%)
  Constipation Grade 3-4, (%): (<1%)
  Cough Grade 1-4, (%): (6%)
  Dehydration Grade 1-4, (%): (3%)
  Dehydration Grade 3-4, (%): (<1%)
  Diarrhea Grade 1-4, (%): (11%)
  Diarrhea Grade 3-4, (%): (<1%)
  Dizziness Grade 1-4, (%): (6%)
  Dizziness Grade 3-4, (%): (<1%)
  Dysgeusia Grade 1-4, (%): (4%)
  Dyspepsia Grade 1-4, (%): (2%)
  Dyspnea Grade 1-4, (%): (4%)
  Dyspnea Grade 3-4, (%): (<1%)
  Dysuria Grade 1-4, (%): (1%)
  Fatigue Grade 1-4, (%): (27%)
  Fatigue Grade 3-4, (%): (3%)
  Febrile Neutropenia Grade 1-4, (%): (1%)
  Febrile Neutropenia Grade 3-4, (%): (1%)
  Headache Grade 1-4, (%): (5%)
  Hematuria Grade 1-4, (%): (4%)
  Hematuria Grade 3-4, (%): (<1%)
  Hypotension Grade 1-4, (%): (2%)
  Hypotension Grade 3-4, (%): (<1%)
  Mucosal Inflammation Grade 1-4, (%): (3%)
  Mucosal Inflammation Grade 3-4, (%): (<1%)
  Muscle Spasms Grade 1-4, (%): (3%)
  Musculoskeletal Pain Grade 1-4, (%): (5%)
  Musculoskeletal Pain Grade 3-4, (%): (<1%)
  Nausea Grade 1-4, (%): (23%)
  Nausea Grade 3-4, (%): (<1%)
  Pain Grade 1-4, (%): (5%)
  Pain Grade 3-4, (%): (2%)
  Pain in Extremity Grade 1-4, (%): (7%)
  Pain in Extremity Grade 3-4, (%): (1%)
  Peripheral Edema Grade 1-4, (%): (9%)
  Peripheral Edema Grade 3-4, (%): (<1%)
  Peripheral Neuropathy Grade 1-4, (%): (3.2%)
  Peripheral Neuropathy Grade 3-4, (%): (<1%)
  Pneumonia Grade 1-4, (%): (1%)
  Pneumonia Grade 3-4, (%): (<1%)
  Pyrexia Grade 1-4, (%): (6%)
  Pyrexia Grade 3-4, (%): (<1%)
  Urinary Tract Infection Grade 1-4, (%): (3%)
  Urinary Tract Infection Grade 3-4, (%): (1%)
  Vomiting Grade 1-4, (%): (10%)
  Weight Decreased Grade 1-4, (%): (8%)
  Weight Decreased Grade 3-4, (%): (<1%)
[3]; [5]
  Anemia Grade 1-4, (%): (82%)
  Anemia Grade 3-4, (%): (5%)
  Leukopenia Grade 1-4, (%): (93%)
  Leukopenia Grade 3-4, (%): (42%)
  Neutropenia Grade 1-4, (%): (87%)
  Neutropenia Grade 3-4, (%): 58.0%
  Thrombocytopenia Grade 1-4, (%): (43%)
  Thrombocytopenia Grade 3-4, (%): (2%)
[3]; percent of patients, laboratory values, cabazitaxel: n = 369, mitoxantrone: n = 370, listed as Mitoxantrone
  Neutropenia Grade 3-4, (%): (58%)
